{"source": "BindingDB's records for doi:10.1016/s0960-894x(00)00610-7", "about": "(Institute of Molecular and Cell Biology, 2001)", "biological_target": "T1, Chymotrypsin-C (Homo sapiens, UniProt Q99895)", "T1 sequence (Q99895 whole entry)": "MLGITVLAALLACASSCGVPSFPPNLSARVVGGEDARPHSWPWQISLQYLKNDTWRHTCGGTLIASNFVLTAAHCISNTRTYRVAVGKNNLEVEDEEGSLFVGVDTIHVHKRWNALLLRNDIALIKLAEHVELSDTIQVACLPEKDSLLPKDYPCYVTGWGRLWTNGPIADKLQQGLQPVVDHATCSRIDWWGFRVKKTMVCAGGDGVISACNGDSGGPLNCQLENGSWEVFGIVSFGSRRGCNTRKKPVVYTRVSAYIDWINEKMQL", "test": "ChEBML_197813", "text": "Inhibitory activity against Serine protease chymotrypsin", "note": "pIC50: −log10 of the molar value.", "data": [{"smiles": "C=C(c1cccc(OC(=O)N[C@@H](CC(C)C)C(=O)N(CCN(Cc2ccc(C(=O)OC)cc2)Cc2ccc(C(=O)OC)cc2)Cc2ccc(Cl)cc2)c1)c1sc(=S)n(CC(=O)OCC)c1O", "note": "[4-{[(2-{(4-Chloro-benzyl)-[2-(3-{1-[3-ethoxycarbonylmethyl-4-oxo-2-thioxo-thiazolidin-(5Z)-ylidene]-ethyl}-phenoxycarbonylamino)-4-methyl-pentanoyl]-amino}-ethyl)-amino-methyl]di-benzoic acid methyl ester]", "values": [{"measurement": "pIC50", "result": 3.68}]}]}
